system: HEK293 cells; assay: HEK293 VLCFA-LPC IC50 determination (13C-labeled C26:0 LPC by UHPLC/MS); format: cell-based, human; details: Homo sapiens, HEK293, 48 h, average of one or more replicates; 13C-labeled C26:0 LPC, 48 hours; read-out: Average HEK293 IC50
How it was run: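 Suspension HEK293 cells (final 0.5 million/mL after mixing with equal volume) incubated 48 hours with compound plus 13C-acetate (1.0 mg/mL in added media), shaking at 37° C. Lipids extracted with hexane/isopropanol or methanol, C13:0 LPC standard. UHPLC/MS of 13C-labeled C26:0 LPC (638.500/104.100 m/z); IC50 by four-parameter fit.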

SMILES | IC50 [nM]
Cc1cncc(-n2ccc(NC(=O)C3(c4ccccc4F)CC3)n2)c1 [Compound 323, 1-(2-fluorophenyl)-N-[1-(5-methyl-3-pyridyl)pyrazol-3-yl]cyclopropanecarboxamide] | 350
Cc1c(-n2ccc(NC(=O)C3(c4ccccc4F)CC3)n2)ccnc1F [Compound 351, N-[1-(2-fluoro-3-methyl-4-pyridyl)pyrazol-3-yl]-1-(2-fluorophenyl)cyclopropanecarboxamide] | 420
N#Cc1cncc(-n2ccc(NC(=O)C3(c4ccccc4F)CC3)n2)c1 [Compound 318, N-[1-(5-cyano-3-pyridyl)pyrazol-3-yl]-1-(2-fluorophenyl)cyclopropanecarboxamide] | > 5000
Cc1cncnc1-n1ccc(NC(=O)C2(c3ccccc3F)CC2)n1 [Compound 360, 1-(2-fluorophenyl)-N-[1-(5-methylpyrimidin-4-yl)pyrazol-3-yl]cyclopropanecarboxamide] | 69
N#Cc1ncccc1-n1ccc(NC(=O)C2(c3ccccc3F)CC2)n1 [Compound 320, N-[1-(2-cyano-3-pyridyl)pyrazol-3-yl]-1-(2-fluorophenyl)cyclopropanecarboxamide] | > 5000

same assay, conditions: Homo sapiens, HEK293, HEK293 cells; average of one or more replicates; read-out: Average HEK293 IC50

SMILES | IC50 [nM]
N#Cc1cccc(C2(C(=O)Nc3ccn(-c4ccccc4)n3)CC2)c1 [Compound 244, 1-(3-cyanophenyl)-N-(1-phenylpyrazol-3-yl)cyclopropanecarboxamide] | 280
O=C(Nc1ccn(-c2ccc(F)c(F)c2)n1)C1(c2ncccc2F)CC12CC2 (centres unmarked) [Compound 522, N-[1-(3,4-difluorophenyl)pyrazol-3-yl]-2-(3-fluoro-2-pyridyl)spiro[2.2]pentane-2-carboxamide] | 810
O=C(Cc1c(F)cccc1F)Nc1ccn(-c2ccccc2)n1 [Compound 61, 2-(2,6-difluorophenyl)-N-(1-phenylpyrazol-3-yl)acetamide] | 65
O=C(Nc1ccn(-c2ccnc(F)c2)n1)C1(c2ccc(Cl)cc2F)CC1 [Compound 262, 1-(4-chloro-2-fluoro-phenyl)-N-[1-(2-fluoro-4-pyridyl)pyrazol-3-yl]cyclopropanecarboxamide] | 300
Cn1ccc(-n2ccc(NC(=O)Cc3ccccc3F)n2)n1 [Compound 230, 2-(2-fluorophenyl)-N-[1-(1-methylpyrazol-3-yl)pyrazol-3-yl]acetamide] | > 5000
CCC(C)(C(=O)Nc1ccn(-c2ccccc2)n1)c1ccccc1 (centres unmarked) [Compound 300, 2-methyl-2-phenyl-N-(1-phenylpyrazol-3-yl)butanamide] | 560
O=C(Nc1ccn(-c2cnc(Cl)s2)n1)C1(c2ccccc2F)CC1 [Compound 410, N-[1-(2-chlorothiazol-5-yl)pyrazol-3-yl]-1-(2-fluorophenyl)cyclopropanecarboxamide] | 100
O=C(Cc1ccc(F)cc1)Nc1ccn(-c2ncccc2F)n1 [Compound 88, 2-(4-fluorophenyl)-N-[1-(3-fluoro-2-pyridyl)pyrazol-3-yl]acetamide] | > 5000
O=C(Nc1ccn(-c2ccnc(F)c2)n1)C1(c2ccccn2)CC1 [Compound 223, N-[1-(2-fluoro-4-pyridyl)pyrazol-3-yl]-1-(2-pyridyl)cyclopropanecarboxamide] | 70
O=C(Nc1ccn(-c2ccnc(F)c2)n1)[C@@]1(c2ccccc2)CC12CCCC2 [Compound 150, (2S)-N-[1-(2-fluoro-4-pyridyl)pyrazol-3-yl]-2-phenyl-spiro[2.4]heptane-2-carboxamide] | < 50
O=C(Nc1ccn(-c2nccs2)n1)C1(c2ccccc2F)CC1 [Compound 92, 1-(2-fluorophenyl)-N-(1-thiazol-2-ylpyrazol-3-yl)cyclopropanecarboxamide] | 38
O=C(Nc1ccn(-c2ccncc2F)n1)C1(c2ccccc2)CC1 [Compound 138, N-(1-(3-fluoropyridin-4-yl)-1H-pyrazol-3-yl)-1-phenylcyclopropane-1-carboxamide] | 55
O=C(Cn1ccnc1)Nc1ccn(-c2ccnc(F)c2)n1 [Compound 286, N-[1-(2-fluoro-4-pyridyl)pyrazol-3-yl]-2-imidazol-1-yl-acetamide] | 5000
O=C(Cc1ccc(F)cc1)Nc1ccn(-c2nccs2)n1 [Compound 91, 2-(4-fluorophenyl)-N-(1-thiazol-2-ylpyrazol-3-yl)acetamide] | 1900
O=C(Cc1ccccc1F)Nc1ccn(-c2ccc(Cl)nc2)n1 [Compound 104, N-[1-(6-chloro-3-pyridyl)pyrazol-3-yl]-2-(2-fluorophenyl)acetamide] | 320
O=C(Nc1ccn(-c2cncc(OC(F)F)c2)n1)C1(c2ccc(F)cn2)CC1 [Compound 490, N-[1-[5-(difluoromethoxy)-3-pyridyl]pyrazol-3-yl]-1-(5-fluoro-2-pyridyl)cyclopropanecarboxamide] | > 5000
O=C(Nc1ccn(-c2cc(F)cc(F)c2)n1)C1(c2ccccc2)CC1 [Compound 308, N-(1-(3,5-difluorophenyl)-1H-pyrazol-3-yl)-1-phenylcyclopropane-1-carboxamide] | 140
COc1ccnc(-n2ccc(NC(=O)C3(c4ccccc4F)CC3)n2)c1 [Compound 501, 1-(2-fluorophenyl)-N-[1-(4-methoxy-2-pyridyl)pyrazol-3-yl]cyclopropanecarboxamide] | > 5000
N#Cc1ccccc1C1(C(=O)Nc2ccn(-c3ccccc3)n2)CC1 [Compound 242, 1-(2-cyanophenyl)-N-(1-phenylpyrazol-3-yl)cyclopropanecarboxamide] | > 2000

SMILES | IC50 [nM]
O=C(Nc1ccn(-c2ccnc(OC(F)F)c2)n1)C1(c2ccccc2F)CC1 [Compound 395, N-(1-(2-(difluoromethoxy)pyridin-4-yl)-1H-pyrazol-3-yl)-1-(2-fluorophenyl)cyclopropane-1-carboxamide] | > 5000
O=C(Cc1ccccc1)Nc1ccn(-c2ccc(F)cc2)n1 [Compound 181, N-[1-(4-fluorophenyl)pyrazol-3-yl]-2-phenyl-acetamide] | 250
O=C(Nc1ccn(-c2ccncc2)n1)C1(c2ncccn2)CC1 [Compound 536, N-[1-(4-pyridyl)pyrazol-3-yl]-1-pyrimidin-2-yl-cyclopropanecarboxamide] | > 5000
COc1ccc(CC(=O)Nc2ccn(-c3ccccc3)n2)cc1C [Compound 62, 2-(4-methoxy-3-methyl-phenyl)-N-(1-phenylpyrazol-3-yl)acetamide] | 3700
O=C(Cn1nccn1)Nc1ccn(-c2ccnc(F)c2)n1 [Compound 299, N-[1-(2-fluoro-4-pyridyl)pyrazol-3-yl]-2-(triazol-2-yl)acetamide] | 5000
COc1ncc(-n2ccc(NC(=O)C3(c4ncccc4F)CC3(C)C)n2)cc1F (centres unmarked) [Compound 517, N-[1-(5-fluoro-6-methoxy-3-pyridyl)pyrazol-3-yl]-1-(3-fluoro-2-pyridyl)-2,2-dimethyl-cyclopropanecarboxamide] | 1100
Cc1ccccc1C1(C(=O)Nc2ccn(-c3ccnc(F)c3)n2)CC1 [Compound 252, N-[1-(2-fluoro-4-pyridyl)pyrazol-3-yl]-1-(o-tolyl)cyclopropanecarboxamide] | 400
O=C(Nc1ccn(-c2ccc(F)c(F)c2)n1)C1(c2cnccn2)CC1 [Compound 492, N-[1-(3,4-difluorophenyl)pyrazol-3-yl]-1-pyrazin-2-yl-cyclopropanecarboxamide] | > 5000
Cn1ccnc1CC(=O)Nc1ccn(-c2ccnc(F)c2)n1 [Compound 302, N-[1-(2-fluoro-4-pyridyl)pyrazol-3-yl]-2-(1-methylimidazol-2-yl)acetamide] | > 5000
O=C(Cc1ncccn1)Nc1ccn(-c2ccccc2)n1 [Compound 220, N-(1-phenylpyrazol-3-yl)-2-pyrimidin-2-yl-acetamide] | > 2000
O=C(Nc1ccn(-c2cncc(Cl)c2)n1)C1(c2ncccn2)CC1 [Compound 530, N-[1-(5-chloro-3-pyridyl)pyrazol-3-yl]-1-pyrimidin-2-yl-cyclopropanecarboxamide] | > 5000
O=C(Cn1cccn1)Nc1ccn(-c2ccccc2)n1 [Compound 289, N-(1-phenylpyrazol-3-yl)-2-pyrazol-1-yl-acetamide] | > 5000
O=C(Cc1ccccc1F)Nc1ccn(-c2ccc(C(F)(F)F)cc2)n1 [Compound 155, 2-(2-fluorophenyl)-N-[1-[4-(trifluoromethyl)phenyl]pyrazol-3-yl]acetamide] | > 5000
O=C(Cc1ccc(F)cc1)Nc1ccn(-c2cncnc2)n1 [Compound 97, 2-(4-fluorophenyl)-N-(1-pyrimidin-5-ylpyrazol-3-yl)acetamide] | > 10000
O=C(Cc1ccccc1OC(F)(F)F)Nc1ccn(-c2ccccc2)n1 [Compound 54, N-(1-phenylpyrazol-3-yl)-2-[2-(trifluoromethoxy)phenyl]acetamide] | > 5000
O=C(Cc1ccccc1F)Nc1ccn(-c2ccncc2F)n1 [Compound 139, 2-(2-fluorophenyl)-N-[1-(3-fluoro-4-pyridyl)pyrazol-3-yl]acetamide] | 400
Cc1cc(C)cc(C2(C(=O)Nc3ccn(-c4ccnc(F)c4)n3)CC2)c1 [Compound 248, 1-(3,5-dimethylphenyl)-N-[1-(2-fIuoro-4-pyridyl)pyrazol-3-yl]cyclopropanecarboxamide] | > 5000
Cc1cc(NC(=O)C2(c3ncccc3F)CC2)nn1-c1ccc(F)cc1F [Compound 451, N-[1-(2,4-difluorophenyl)-5-methyl-pyrazol-3-yl]-1-(3-fluoro-2-pyridyl)cyclopropanecarboxamide] | 2400
O=C(Nc1cc(F)n(-c2cncc(F)c2)n1)C1(c2ncccc2F)CC1 [Compound 462, N-[5-fluoro-1-(5-fluoro-3-pyridyl)pyrazol-3-yl]-1-(3-fluoro-2-pyridyl)cyclopropanecarboxamide] | > 5000

same assay, conditions: average of one or more replicates; 13C-labeled C26:0 LPC, 48 hours; read-out: Average HEK293 IC50

SMILES | IC50 [nM]
O=C(Nc1ccn(-c2ccncc2)n1)C1(c2ccccc2)CC1(F)F (single isomer, unassigned) [Compound 434] | 340

Source: US20180251431A1 (VERTEX PHARMACEUTICALS INCORPORATED, priority 2016, published 2018)
